The record followed here is ChEMBL document CHEMBL1165959, “Novel tricyclic Delta(2)-isoxazoline and 3-oxo-2-methyl-isoxazolidine derivatives: synthesis and binding affinity at neuronal nicotinic acetylcholine receptor subtypes” (Bioorg Med Chem, 2010).

The structures appear in SMILES notation.

For experiment [1], the target named is Neuronal acetylcholine receptor; alpha4/beta2 (Rattus norvegicus, UniProt P09483+P12390). Kind of experiment: Displacement of (+/-)-[3H]epibatidine from alpha4beta2 nAChR in rat cortical membrane. In kind it is cell membranes.
Neuronal acetylcholine receptor; alpha4/beta2, sequence (P09483 whole entry): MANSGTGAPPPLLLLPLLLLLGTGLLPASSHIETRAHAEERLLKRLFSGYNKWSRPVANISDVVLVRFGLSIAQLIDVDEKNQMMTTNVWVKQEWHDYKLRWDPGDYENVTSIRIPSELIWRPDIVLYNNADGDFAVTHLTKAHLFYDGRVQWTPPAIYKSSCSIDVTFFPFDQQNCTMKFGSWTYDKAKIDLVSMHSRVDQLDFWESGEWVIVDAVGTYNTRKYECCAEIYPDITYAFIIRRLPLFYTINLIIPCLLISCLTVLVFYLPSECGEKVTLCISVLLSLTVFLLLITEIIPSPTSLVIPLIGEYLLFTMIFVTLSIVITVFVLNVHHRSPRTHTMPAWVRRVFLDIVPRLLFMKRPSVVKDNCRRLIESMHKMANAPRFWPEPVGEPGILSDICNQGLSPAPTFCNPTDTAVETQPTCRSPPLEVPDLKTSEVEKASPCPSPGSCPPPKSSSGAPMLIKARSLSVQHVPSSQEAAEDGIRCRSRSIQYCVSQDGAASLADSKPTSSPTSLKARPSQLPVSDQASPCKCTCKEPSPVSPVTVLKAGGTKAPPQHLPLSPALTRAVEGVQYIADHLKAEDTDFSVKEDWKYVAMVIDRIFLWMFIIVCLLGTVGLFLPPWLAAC
Neuronal acetylcholine receptor; alpha4/beta2, sequence (P12390 whole entry): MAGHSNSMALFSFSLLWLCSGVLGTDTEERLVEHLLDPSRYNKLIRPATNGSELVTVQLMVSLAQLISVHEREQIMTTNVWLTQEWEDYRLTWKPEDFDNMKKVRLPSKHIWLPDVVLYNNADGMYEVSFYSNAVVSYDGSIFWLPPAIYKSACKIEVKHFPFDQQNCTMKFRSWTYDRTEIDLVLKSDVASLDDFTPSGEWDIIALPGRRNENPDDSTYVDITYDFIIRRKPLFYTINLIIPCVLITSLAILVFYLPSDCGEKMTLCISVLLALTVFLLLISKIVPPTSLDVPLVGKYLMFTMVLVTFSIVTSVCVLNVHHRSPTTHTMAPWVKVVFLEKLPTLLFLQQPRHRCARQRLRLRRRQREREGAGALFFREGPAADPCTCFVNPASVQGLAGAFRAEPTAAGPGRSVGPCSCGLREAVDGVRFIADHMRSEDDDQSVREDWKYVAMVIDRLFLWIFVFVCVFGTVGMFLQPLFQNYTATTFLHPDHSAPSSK
For experiment [2], the target named is Neuronal acetylcholine receptor subunit alpha-7 (Rattus norvegicus, UniProt Q05941). As to the kind of experiment: Displacement of [125I]alpha-Bungarotoxin from alpha7 nAChR in rat cortical membrane. The experiment is classed as cell membranes.
Neuronal acetylcholine receptor subunit alpha-7, sequence (Q05941 whole entry): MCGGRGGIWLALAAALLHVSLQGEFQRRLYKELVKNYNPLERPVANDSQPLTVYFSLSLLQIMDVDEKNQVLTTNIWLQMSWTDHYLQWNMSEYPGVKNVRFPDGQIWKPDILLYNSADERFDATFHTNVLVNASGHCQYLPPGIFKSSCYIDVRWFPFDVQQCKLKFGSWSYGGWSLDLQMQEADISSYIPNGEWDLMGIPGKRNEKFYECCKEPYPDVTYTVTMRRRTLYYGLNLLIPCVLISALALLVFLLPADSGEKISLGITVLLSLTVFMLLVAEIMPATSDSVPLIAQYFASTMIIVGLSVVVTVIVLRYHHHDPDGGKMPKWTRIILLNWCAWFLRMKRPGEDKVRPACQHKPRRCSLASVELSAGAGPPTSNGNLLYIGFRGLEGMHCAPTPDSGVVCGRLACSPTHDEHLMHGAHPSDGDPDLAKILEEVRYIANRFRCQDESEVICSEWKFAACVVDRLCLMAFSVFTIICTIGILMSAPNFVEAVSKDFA

A word on the Ki: it is the equilibrium dissociation constant of an inhibitor or competing ligand from its target. A lower Ki goes with a stronger hold on the target.

Consider `BrC1=NOC2CC3CNCC(C3)C12` (centres undefined), for which the inhibition constant Ki in experiment [1] worked out at 0.92 µM; in experiment [2], 28.5 µM.
The matching figures for `BrC1=NOC2C3CCC(CC12)N3` (centres undefined): 0.75 µM and 20 µM.
The matching figures for `O=c1cccc2n1C[C@@H]1CNC[C@H]2C1` [CYTISINICLINE]: 0.0004 µM and 0.3 µM.
The matching figures for `CN1OC2CC3CCC(N3)C2C1=O` (centres undefined): 50 µM and above 100 µM.
As to `COC1=NOC2CC3CCC(N3)C12` (centres undefined), the inhibitory constant (Ki) in experiment [1] is 53 µM; in experiment [2], 68 µM.
For `COC1=NOC2CC3CNCC(C3)C12` (centres undefined), in that order: 31 µM and 170 µM.
For `CN1OC2C3CCC(CC2C1=O)N3` (centres undefined), in that order: 100 µM and above 100 µM.
For `BrC1=NOC2CC3CCC(N3)C12` (centres undefined), in that order: 260 µM and 109 µM.
In the case of `CN1OC2C3CNCC(C3)CC2C1=O` (centres undefined), the inhibition constant Ki in experiment [1] was found to be 1.8 µM; in experiment [2] it was 9.5 µM.
For `CC(=O)C1=CC[C@H]2CC[C@@H]1N2`, in that order: 0.094 µM and above 10 µM.
The matching figures for `COC1=NOC2C3CCC(CC12)N3` (centres undefined): 4.5 µM and 28.2 µM.
The matching figures for `CN1OC2CC3CNCC(C3)C2C1=O` (centres undefined): 79 µM and above 100 µM.
